Data reported in patent US20260258084A1, “New Peptides as Selective IL-23 Receptor Antagonists” (Sanofi, priority 2022, published 2026).
Starred links: 1 amine or outer side, 2 acyl side, 3 side chain; linkers in the order of their positions; H or OH if unused. Positions of bridges follow the written chain, without caps; N, C: chain ends. Non-standard residues stand in square brackets, D forms with d. Residues, ends and D or L forms follow the SMILES beside them. *: point of attachment. X5 = CN(C(=O)CCC(=O)[*:3])[C@@H](CS[*:2])C(=O)[*:1]; X6 = O=C(CCC(=O)[*:3])N[C@@H](CS[*:2])C(=O)[*:1]; Trp(7-Me) = Cc1cccc2c(C[C@H](N)C(=O)O)c[nH]c12; X1 = O=C(CCCCN[*:3])N[C@@H](CS[*:2])C(=O)[*:1]; αMeLys(Me2) = CN(C)CCCC[C@](C)(N)C(=O)O; 2Nal = N[C@@H](Cc1ccc2ccccc2c1)C(=O)O; 3Pal = N[C@@H](Cc1cccnc1)C(=O)O; Lys(Me) = CNCCCC[C@H](N)C(=O)O; αMeL = CC(C)C[C@](C)(N)C(=O)O; Suc = O=C(CCC(=O)[*:2])[*:1]; Thp = NC1(C(=O)O)CCOCC1; Me2NCH2CH2 = CN(C)CC*; Aib = CC(C)(N)C(=O)O; Ahx = NCCCCCC(=O)O; Ava = NCCCCC(=O)O; Sar = CNCC(=O)O

Legend:
[1] = system: Pancreatin; assay: Protease stability in simulated intestinal fluid (Pancreatin-SIF, FaSSIF); assay type: in vitro ADME; conditions: 1 μM peptide, 37° C.; for remaining at 1 h, 1 µM: 60 min, read-out: FaSSIF 60 (min), remaining percent of peptide; for remaining at 2 h, 1 µM: 120 min, read-out: FaSSIF 120 (min), remaining percent of peptide; for remaining at 4 h, 1 µM: 240 min, read-out: FaSSIF 240 (min), remaining percent of peptide
Method in brief: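 LC-MS/MS peak areas at 0, 60, 120 and 240 min, normalised to time 0 as 100%, give percent remaining. Reactions used 1 μM final peptide at 37° C in pancreatin-SIF (1 mg pancreatin in 10 mL SIF concentrate) and were stopped with ethanol containing 0.1% HCOOH.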

[2] = target: T1, human interleukin-23 receptor (recombinant human IL-23R-Fc chimera) (Homo sapiens, UniProt Q5VWK5); assay: Human ELISA IL23/IL23R (assay for specific human IL23R antagonists); assay type: binding; conditions: Table 10; read-out: Human ELISA IL23/IL23R IC50
T1 construct: Fc (IgG Fc fusion)
Method in brief: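 Competition format: peptide dilutions compete for IL23R-Fc chimera (0.1 μg/ml final, 60 min, room temperature) binding to immobilized human IL23 coated at […] overnight at 4 °C. Read-out is fluorogenic HRP signal from goat anti-hu-IgG1 detecting captured receptor.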

[3] = system: IL-23 induced STAT3 signaling in HEK-Blue™ IL-23 cells; assay: IL-23 induced STAT3 signaling in HEK-Blue IL-23 cells (SEAP reporter); assay type: cell-based; conditions: human IL23 0.25 ng/ml, read-out: pSTAT3
Method in brief: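 Secreted SEAP, read at OD 620-655 nm after 45 min QUANTI-Blue development, reports STAT3 activation. Beforehand, cells were exposed to peptide dilutions for 60 min at 37 °C and then to 0.25 ng/ml final human IL-23 overnight, at 10,000 cells/well.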

[4] = system: T2, Pepsin; assay: Protease stability in simulated gastric fluid (Pepsin-SGF, FaSSGF); assay type: in vitro ADME; conditions: simulated gastric fluid with pepsin (Pepsin-SGF), 60 min, 1 μM peptide, 37° C., read-out: FaSSGF 60 (min), remaining percent of peptide
T2 construct: purchased Merck Millipore
Method in brief: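 LCMS/MS peak areas, normalised to the time-0 sample as 100%, give percent remaining. Conditions: 37° C incubation of 1 μM final peptide in simulated gastric fluid with pepsin; ethanol/0.1% HCOOH quench at 0, 60, 120, 240 min.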

| remaining at 1 h, 1 µM [1] | remaining at 2 h, 1 µM [1] | remaining at 4 h, 1 µM [1] | IC50 [2] | remaining at 1 h, 1 µM [4] | Structure (SMILES) | IC50 [3] |
| --- | --- | --- | --- | --- | --- | --- |
| 81% | 76% | 65% | 0.5 nM | 102% | Cc1cccc2c(C[C@@H]3NC(=O)[C@H]([C@@H](C)O)NC(=O)[C@H](CC(N)=O)NC(=O)[C@@H]4CSSC[C@H](NC(=O)[C@H](CCC(N)=O)NC3=O)C(=O)N[C@@H](Cc3ccc(OCCN(C)C)cc3)C(=O)N[C@@H](Cc3ccc5ccccc5c3)C(=O)NC(C)(C)C(=O)N[C@H](C(=O)N[C@@H](CC(N)=O)C(=O)N[C@@H](Cc3c[nH]cn3)C(N)=O)CCC(=O)NCCCCC(=O)N4)c[nH]c12 [compound 52] ([Ava]CNT[Trp(7-Me)]QCY(Me2NCH2CH2)[2Nal][Aib]ENH-NH2; disulfide 2-7; lactam N-11) | 1.25 nM |
| 76% | 64% | 38% | 0.7 nM | 1% | COc1ccc(C[C@@H]2NC(=O)[C@@H]3CSSC[C@H](NC(=O)CCCCCNC(=O)C[C@@H](C(=O)N[C@@H](CC(N)=O)C(=O)N[C@@H](CC(N)=O)C(N)=O)NC(=O)C(C)(C)NC(=O)[C@H](Cc4ccc5ccccc5c4)NC2=O)C(=O)N[C@@H](CC(N)=O)C(=O)N[C@@H]([C@@H](C)O)C(=O)N[C@@H](Cc2c[nH]c4ccccc24)C(=O)N[C@@H](CCC(N)=O)C(=O)N3)cc1 [compound 3] ([Ahx]CNTWQCY(Me)[2Nal][Aib]DNN-NH2; disulfide 2-7; lactam N-11) | 17.2 nM |
| 80% | 73% | 74% | 1.93 nM | 37% | CC(=O)N[C@H]1CCCCNC(=O)[C@@H]2CSSC[C@H](NC(=O)[C@H](CC(C)C)NC(=O)[C@H](Cc3c[nH]c4c(C)cccc34)NC1=O)C(=O)N[C@@H](Cc1ccc(OCCN(C)C)cc1)C(=O)N[C@@H](Cc1ccc3ccccc3c1)C(=O)N[C@@](C)(CC(C)C)C(=O)N[C@H](C(=O)N[C@@H](CC(N)=O)C(=O)N[C@@H](Cc1cccnc1)C(=O)N(C)CC(N)=O)CCCCNC(=O)CCC(=O)N2 [compound 158] (Ac-K[Trp(7-Me)]LCY(Me2NCH2CH2)[2Nal][αMeL]KN[3Pal][Sar]-NH2; linker 1-4-8 via X6) | 0.39 nM |
| 71% | 52% | 45% | 0.59 nM | 74% | C[C@@H](O)[C@@H]1NC(=O)[C@H](CC(N)=O)NC(=O)[C@@H]2CSSC[C@H](NC(=O)[C@H](CCC(N)=O)NC(=O)[C@H](Cc3c[nH]c4ccccc34)NC1=O)C(=O)N[C@@H](Cc1ccc(OCCN(C)C)cc1)C(=O)N[C@@H](Cc1ccc3ccccc3c1)C(=O)NC(C)(C)C(=O)N[C@H](C(=O)N[C@@H](CC(N)=O)C(=O)N[C@@H](CC(N)=O)C(N)=O)CCCCN(C)C(=O)CCC(=O)N2 [compound 25] | 39.2 nM |
| 82% | 81% | 77% | 0.58 nM | 87% | CC(=O)NCCCC[C@@H]1NC(=O)[C@H](Cc2c[nH]c3c(C)cccc23)NC(=O)[C@@H](NC(C)=O)CCCCNC(=O)[C@@H]2CSSC[C@H](NC1=O)C(=O)N[C@@H](Cc1ccc(OCCN(C)C)cc1)C(=O)N[C@@H](Cc1ccc3ccccc3c1)C(=O)N[C@@](C)(CC(C)C)C(=O)N[C@H](C(=O)N[C@@H](CC(N)=O)C(=O)N[C@@H](Cc1cccnc1)C(=O)N(C)CC(N)=O)CCC(=O)NCCCCC(=O)N2 [compound 73] (Ac-K[Trp(7-Me)]K(Ac)CY(Me2NCH2CH2)[2Nal][αMeL]EN[3Pal][Sar]-NH2; linker 1-4-8 via X1) | 0.1 nM |
| 78% | 80% | 77% | 0.55 nM | 93% | CC(=O)NCCCC[C@@H]1NC(=O)[C@H](Cc2c[nH]c3c(C)cccc23)NC(=O)[C@@H](NC(C)=O)CCCCNC(=O)[C@@H]2CSSC[C@H](NC1=O)C(=O)N[C@@H](Cc1ccc(OCCN(C)C)cc1)C(=O)N[C@@H](Cc1ccc3ccccc3c1)C(=O)NC1(CCOCC1)C(=O)N[C@H](C(=O)N[C@@H](CC(N)=O)C(=O)N[C@@H](Cc1cccnc1)C(=O)N(C)CC(N)=O)CCCCNC(=O)CCC(=O)N2 [compound 105] (Ac-K[Trp(7-Me)]K(Ac)CY(Me2NCH2CH2)[2Nal][Thp]KN[3Pal][Sar]-NH2; linker 1-4-8 via X6) | 0.1 nM |
| 83% | 72% | 67% | 0.33 nM | 100% | Cc1cccc2c(C[C@@H]3NC(=O)[C@H]([C@@H](C)O)NC(=O)[C@H](CC(N)=O)NC(=O)[C@@H]4CSSC[C@H](NC(=O)[C@H](CCC(N)=O)NC3=O)C(=O)N[C@@H](Cc3ccc(OCCN(C)C)cc3)C(=O)N[C@@H](Cc3ccc5ccccc5c3)C(=O)NC(C)(C)C(=O)N[C@H](C(=O)N[C@@H](CO)C(=O)N[C@@H](Cc3c[nH]cn3)C(N)=O)CCC(=O)NCCCCC(=O)N4)c[nH]c12 [compound 43] ([Ava]CNT[Trp(7-Me)]QCY(Me2NCH2CH2)[2Nal][Aib]ESH-NH2; disulfide 2-7; lactam N-11) | 1.31 nM |
| 94% | 90% | 87% | 2.07 nM | 78% | CC(=O)N[C@H]1CCCCNC(=O)[C@@H]2CSSC[C@H](NC(=O)[C@H](CC(C)C)NC(=O)[C@H](Cc3c[nH]c4c(C)cccc34)NC1=O)C(=O)N[C@@H](Cc1ccc(OCCN(C)C)cc1)C(=O)N[C@@H](Cc1ccc3ccccc3c1)C(=O)N[C@@](C)(CC(C)C)C(=O)N[C@H](C(=O)N[C@@H](C)C(=O)N[C@@H](Cc1cccnc1)C(=O)N(C)CC(N)=O)CCCCN(C)C(=O)CCC(=O)N2C [compound 70] (Ac-K[Trp(7-Me)]LCY(Me2NCH2CH2)[2Nal][αMeL][Lys(Me)]A[3Pal][Sar]-NH2; linker 1-4-8 via X5) | 3.94 nM |
| 95% | 95% | 94% | 0.29 nM | 95% | C[C@@H](O)[C@@H]1NC(=O)[C@H](CC(N)=O)NC(=O)[C@@H]2CSSC[C@H](NC(=O)[C@H](CCC(N)=O)NC(=O)[C@H](Cc3c[nH]c4ccccc34)NC1=O)C(=O)N[C@@H](Cc1ccc(OCCN(C)C)cc1)C(=O)N[C@@H](Cc1ccc3ccccc3c1)C(=O)NC1(CCOCC1)C(=O)N[C@H](C(=O)N[C@@H](CC(N)=O)C(=O)N[C@@H](CC(N)=O)C(N)=O)CCC(=O)NCCCCC(=O)N2 [compound 26] ([Ava]CNTWQCY(Me2NCH2CH2)[2Nal][Thp]ENN-NH2; disulfide 2-7; lactam N-11) | 3.37 nM |
| 100% | 98% | 80% | 0.16 nM | 93% | CC(=O)NCCCC[C@@H]1NC(=O)[C@H](Cc2c[nH]c3ccccc23)NC(=O)[C@H]([C@@H](C)O)NC(=O)[C@H](CC(N)=O)NC(=O)[C@@H]2CSSC[C@H](NC1=O)C(=O)N[C@@H](Cc1ccc(OCCN(C)C)cc1)C(=O)N[C@@H](Cc1ccc3ccccc3c1)C(=O)N[C@@](C)(CCCCN(C)C)C(=O)N[C@H](C(=O)N[C@@H](CC(N)=O)C(=O)N[C@@H](Cc1cccnc1)C(=O)N(C)CC(N)=O)CCC(=O)NCCCCC(=O)N2 [compound 58] ([Ava]CNTWK(Ac)CY(Me2NCH2CH2)[2Nal][αMeLys(Me2)]EN[3Pal][Sar]-NH2; disulfide 2-7; lactam N-11) | 0.1 nM |
| 97% | 97% | 96% | 0.61 nM | 101% | CC(=O)NCCCC[C@@H]1NC(=O)[C@H](Cc2c[nH]c3c(C)cccc23)NC(=O)[C@H]([C@@H](C)O)NC(=O)[C@H](CC(N)=O)NC(=O)[C@@H]2CSSC[C@H](NC1=O)C(=O)N[C@@H](Cc1ccc(OCCN(C)C)cc1)C(=O)N[C@@H](Cc1ccc3ccccc3c1)C(=O)N[C@@](C)(CCCCN(C)C)C(=O)N[C@H](C(=O)N[C@@H](CC(N)=O)C(=O)N[C@@H](Cc1cccnc1)C(=O)N(C)CC(N)=O)CCCCNC(=O)CCC(=O)N2 [compound 151] (CNT[Trp(7-Me)]K(Ac)CY(Me2NCH2CH2)[2Nal][αMeLys(Me2)]KN[3Pal][Sar]-NH2; disulfide 1-6; linker N-10 via Suc) | 0.06 nM |
